Tests used:
KCa3.1 = biological target: T1, KCa3.1 (Homo sapiens, UniProt O15554+P0DP23); test: QPatch automated whole-cell patch-clamp screen, 10 µM activator normalized to 10 µM SKA-31; type: cell-based; conditions: for Whole-cell KCa3.1 response elicited by 10 µM of activator normalized to 10 µM SKA-31 (described in words): 250 nM free internal Ca2+, HEK cells stably expressing channel; for Selectivity between KCa3.1 and KCa2.2 in the 10 µM screen: KCa3.1 versus KCa2.2, 250 nM free Ca2+
T1 construct: expressed in transfected cells
Procedure: (§1) All experiments were performed in either the inside-out or the whole-cell configuration of the patch-clamp technique on either transiently transfected CHO cells or Human Embryonic Kidney (HEK) cell lines stably expressing hKCa3.1 or hKCa2.2 ([Sankaranarayanan et al., 2009]). All cells were cultured in Dulbecco’s modified Eagle’s medium supplemented with 10% fetal calf serum. Wild-type (WT) and mutant hKCa3.1 channel constructs were transfected using FuGENE 6 transfection reagent (Promega, Madison, WI) in OptiMEM reduced-serum medium (Life Technologies, Benicia, CA) for manual patch-clamp experiments or via electroporation (Nucleofector 2b and Lonza Amaxa Cell Line Nucleofector Kit T) according to the manufacturer’s instructions for automated electrophysiology.
(§2) The procedure for performing automated whole-cell KCa channel recordings on a QPatch-16 automated electrophysiology platform (Sophion Biosciences) was previously described in detail by our laboratory ([Jenkins et al., 2013]). For the current study we used the solutions described above with disposable 16-channel planar patch chip plates (QPlates; patch hole diameter […], resistance 2.00–0.02MΩ, Sophion Biosciences, Woburn, MA). Cell positioning and sealing parameters were set as follows: positioning pressure -70 mbar, resistance increase for success 750%, minimum seal resistance 0.1 GΩ, holding potential -0 mV, holding pressure -20 mbar. To avoid rejection of cells with large KCa3.1 currents, the minimum seal resistance for whole-cell requirement was lowered to 0.001 GΩ. Access was obtained with the following sequence: 1) suction pulses in 29 mbar increments from -250 mbar to -453 mbar; 2) a suction ramp of an amplitude of -450 mbar; 3) -400 mV voltage zaps of 1 ms duration. Following establishment of the whole-cell configuration, cells were held at -80 mV and KCa currents elicited by a voltage protocol that held at -80 mV for 20 ms, stepped to -120 mV for 20 ms, ramped from -120 to + 40 mV in 200 ms, and then stepped back to -120 mV for 20 ms. This pulse protocol was applied every 10 s. KCa activator dilutions were prepared freshly (within 5 min of the initiation of the QPatch) with Ringer’s solution from 10 mM stock solutions in dry DMSO. Final DMSO concentrations never exceeded 1%. Glass vial inserts (to avoid adsorption) were filled with 400 µL of compound solution and placed into the insert base plate for use in the QPatch assay. Exemplary QPatch raw current traces and plots of slope conductance versus time are shown in Supplementary Figure 3 . For each compound we typically used 12 consecutive liquid periods Break-in, 3 saline additions to stabilize the current, 2 additions of test compound at 10 µM, 2 saline washes, 2 additions of SKA-31 at 10 µM, followed by 2 more saline washes. In each liquid period 10 pulse protocols were run.
(§3) The newly synthesized compounds were tested by automated whole-cell patch-clamp for their ability to activate KCa2.2 and KCa3.1 channels stably expressed in HEK cells. […] A promising compound would ideally do both. […] We started by comparing the effect of the SKA-74 derivatives to SKA-31 ( Figure 4A ).
(§4) Figure 4 Whole-cell KCa3.1 and KCa2.2 responses elicited by 10 µM of activator and normalized to 10 µM of the mixed activator SKA-31. Experiments were performed by automated electrophysiology with 250 nM of free internal Ca^2+. In each experiment the new activator was tested first, washed out with 2 saline additions, and then SKA-31 was applied as positive control for normalization of the response. (A) Screening of SKA-74 derivatives. (B) Screening of SKA-75 and SKA-76 derivatives. The bar graphs show means ± SD of the slope conductance measured between −85 and −65 mV (n = 2–7 cells). Chemical structures are shown below the bar graphs.
(§5) Figure 5 Whole-cell KCa3.1 and KCa2.2 responses elicited by 10 µM of activator and normalized to 10 µM of the mixed activator SKA-31. […]

KCa2.2 = biological target: T2, KCa2.2 (Homo sapiens, UniProt P0DP23+Q9H2S1); test: as above; type: cell-based; conditions: 250 nM free internal Ca2+, HEK cells stably expressing channel
T2 construct: expressed in transfected cells
Procedure: as §1, §2, §3, §4, §5

Compound	Whole-cell KCa3.1 response elicited by 10 µM of activator normalized to 10 µM SKA-31 (described in words) (KCa3.1)	Whole-cell KCa2.2 response elicited by 10 µM of activator normalized to 10 µM SKA-31 (described in words) (KCa2.2)	Selectivity between KCa3.1 and KCa2.2 in the 10 µM screen (KCa3.1)	melting point [°C]
2-Aminonaphtho[1,2-d]oxazole-5-sulfonic acid [SKA-128]	drastically reduced potency	drastically reduced potency		
5,6-Dinitronaphtho[1,2-d]thiazol-2-amine [SKA-218]			preserved the selectivity for KCa3.1	
Cc1nc2c(cc(Cl)c3ccccc32)s1 [SKA-130, 5-Chloro-2-methylnaphtho[1,2-d]thiazole]		decreased activity	preserved selectivity for KCa3.1	
Cc1nc2c(cc(Br)c3ccccc32)s1 [SKA-132, 5-Bromo-2-methylnaphtho[1,2-d]thiazole]		decreased activity	preserved selectivity for KCa3.1	
Cc1nc2c(cc(Br)c3ccccc32)o1 [SKA-133, 5-Bromo-2-methylnaphtho[1,2-d]oxazole]		decreased activity	preserved selectivity for KCa3.1	101 to 102
Nc1nc2cc3ccccc3cc2o1 [SKA-134, Naphtho[2,3-d]oxazol-2-amine]				247 to 248
c1ccc2c(c1)ccc1sc(NC3CCCCC3)nc12 [SKA-165, N-Cyclohexylnaphtho[1,2-d]thiazol-2-amine]	completely eliminated activity	completely eliminated activity		
Cc1nc2c(ccc3c(N)cccc32)s1 [SKA-172, 2-Methylnaphtho[1,2-d]thiazol-6-amine]			preserved the selectivity for KCa3.1	
Cc1nc2c(ccc3cccc(N)c32)s1 [SKA-178, 2-Methylnaphtho[1,2-d]thiazol-9-amine]			preserved the selectivity for KCa3.1	87 to 88
Cc1ccc(-c2csc(N)n2)c2ccccc12 [SKA-190, 4-(4-Methylnaphthalen-1-yl)thiazol-2-amine]	somewhat increased KCa channel activating potency	somewhat increased KCa channel activating potency		
CNc1nc2c(cc(C)c3ccccc32)s1 [SKA-204, N,5-Dimethylnaphtho[1,2-d]thiazol-2-amine]				172 to 173
Cc1nc2c(ccc3cccc([N+](=O)[O-])c32)s1 [SKA-216, 2-Methyl-9-nitronaphtho[1,2-d]thiazole]			preserved the selectivity for KCa3.1	151 to 152
Nc1nc(-c2ccc3ccccc3c2)c(Br)s1 [SKA-220, 5-Bromo-4-(naphthalen-2-yl)thiazol-2-amine]	somewhat increased KCa channel activating potency	somewhat increased KCa channel activating potency		
Nc1nc(-c2ccc(-c3ccccc3)cc2)cs1 [SKA-232, 4-Biphenyl-4-yl-thiazol-2-ylamine]	completely devoid of activity	completely devoid of activity		
Nc1ncc(-c2ccc(-c3ccc(-c4cnc(N)s4)cc3)cc2)s1 [SKA-255, Bis-4,4’-(2-amino-4-thiazolyl)biphenyl]	completely devoid of activity	completely devoid of activity		

The next lines start with the values.

Whole-cell KCa3.1 response elicited by 10 µM of activator normalized to 10 µM SKA-31 (described in words) (KCa3.1)	Whole-cell KCa2.2 response elicited by 10 µM of activator normalized to 10 µM SKA-31 (described in words) (KCa2.2)	Selectivity between KCa3.1 and KCa2.2 in the 10 µM screen (KCa3.1)	melting point [°C]	Compound
completely devoid of activity	completely devoid of activity			c1ccc(-c2csc(Nc3ccccn3)n2)cc1 [SKA-265, 4-Phenyl-N-(pyridin-2-yl)thiazol-2-amine]
roughly as potent		as KCa3.1 selective as SKA-111	144 to 145	CCc1cc2sc(N)nc2c2ccccc12 [SKA-306, 5-Ethylnaphtho[1,2-d]thiazol-2-amine]
roughly as potent		as KCa3.1 selective as SKA-111	147 to 150	CCCc1cc2sc(N)nc2c2ccccc12 [SKA-307, 5-Propylnaphtho[1,2-d]thiazol-2-amine]
roughly as potent		as KCa3.1 selective as SKA-111	179 to 181	CC(C)c1cc2sc(N)nc2c2ccccc12 [SKA-308, 5-Isopropylnaphtho[1,2-d]thiazol-2-amine]
			177 to 178	Nc1nc2c(cc(-c3ccccc3)c3ccccc32)s1 [SKA-326, 5-Phenylnaphtho[1,2-d]thiazol-2-amine]
roughly as potent		as KCa3.1 selective as SKA-111	171 to 174	CN(C)c1cc2sc(N)nc2c2ccccc12 [SKA-331, N^5,N^5-Dimethylnaphtho[1,2-d]thiazole-2,5-diamine]
			272 to 275	Nc1nc2c(cc(-n3ccnc3)c3ccccc32)s1 [SKA-334, 5-(1H-Imidazol-1-yl)naphtho[1,2-d]thiazol-2-amine]
			226 to 227	Nc1nc2c(cc(-n3cccn3)c3ccccc32)s1 [SKA-335, 5-(1H-Pyrazol-1-yl)naphtho[1,2-d]thiazol-2-amine]
			208	Nc1nc2c(cc(-n3ccnn3)c3ccccc32)s1 [SKA-339, 5-(1H-1,2,3-Triazol-1-yl)naphtho[1,2-d]thiazol-2-amine]
			189 to 190	Cc1ccn(-c2cc3sc(N)nc3c3ccccc23)n1 [SKA-340, 5-(3-Methyl-1H-pyrazol-1-yl)naphtho[1,2-d]thiazol-2-amine]
			206 to 207	Nc1nc2c(cc(-n3ccc(C(F)(F)F)n3)c3ccccc32)s1 [SKA-341, 5-(3-(Trifluoromethyl)-1H-pyrazol-1-yl)naphtho[1,2-d]thiazol-2-amine]
			269 to 271	Cc1cn(-c2cc3sc(N)nc3c3ccccc23)cn1 [SKA-343, 5-(4-Methyl-1H-imidazol-1-yl)naphtho[1,2-d]thiazol-2-amine]
			264 to 265	Cc1nccn1-c1cc2sc(N)nc2c2ccccc12 [SKA-344, 5-(2-Methyl-1H-imidazol-1-yl)naphtho[1,2-d]thiazol-2-amine]
			249	Cc1cnn(-c2cc3sc(N)nc3c3ccccc23)c1 [SKA-345, 5-(4-Methyl-1H-pyrazol-1-yl)naphtho[1,2-d]thiazol-2-amine]
			273	Nc1nc2c(cc(-n3cncn3)c3ccccc32)s1 [SKA-347, 5-(1H-1,2,4-Triazol-1-yl)naphtho[1,2-d]thiazol-2-amine]
